Source: US20200323215A1, “PESTICIDE FORMULATIONS DERIVED FROM COMBINATIONS OF CARRAGEENANS, SORBIC ACIDS, AND BICARBONATES” (Circadian Crop Sciences LLC, priority 2019, published 2020)

Experiments:
fusarium = details: in the literature; cited from earlier work
powdery mildew = assay: Sprays against powdery mildew infestations on nursery grown plants; format: in vivo; details: for eliminating infestations of powdery mildew: single ingredient sprayed at 1 tablespoon per gallon of water, nursery grown roses, gerbera daisies, ornamental peas, trumpet vines, chrysanthemums, grapevines
Description: One hundred grams of potassium bicarbonate is blended with one hundred grams of carrageenan.

[1] = system: Tomato Russet Mite (Aculops lycopersici); details: sprays on young tomato plants naturally infested
Description: Fifty grams of potassium sorbate and fifty grams of sodium bicarbonate are mixed with one hundred grams of carrageenan.

For `O=C([O-])O.[K+]` [potassium bicarbonate], the “efficacy against fusarium, each product separately” value (fusarium) is given as “shown efficacy”.

In the case of `C/C=C/C=C/C(=O)[O-].[K+]` [potassium sorbate], the “eliminating infestations of powdery mildew” value (powdery mildew) is reported as “ineffective” and the “effect on Tomato Russet Mites” value [1] is reported as “no effect”.

With `O=C([O-])O.[Na+]` [sodium bicarbonate] the “effect on powdery mildew that had overwintered on ornamental pea leaves” value (powdery mildew; overwintered powdery mildew, ornamental pea leaves) was “unaffected” and the “eliminating infestations of powdery mildew” value (powdery mildew) was “ineffective”.
